Test results: US4049665A, “Unsymmetrical disulfides as antimicrobial agents” (Colgate-Palmolive Company, priority 1975, dated 1977)
In brackets after ≈: the same amount, converted by molar mass. Like-named read-outs stand apart in the source and are kept apart here. Each block holds one compound with its values, some of them ahead of it.

How the values were obtained:
[1] = tested on: C. albicans; assay: two-fold serial dilution test, minimum inhibitory concentration (Table I); type: cell-based, Candidia albicans; settings: Candida albicans, C. albicans (Yeast), 1% solution in 95% ethyl alcohol
Source text: (§1) *Data indicates minimum inhibitory concentration in parts per million
(§2) tested by the two-fold serial dilution text method utilizing 1% solution
(§3) of the test material in 95% ethyl alcohol.

[2] = tested on: Ps. aeruginosa; assay: as above; type: cell-based; settings: Pseudomonas aeruginosa, Ps. aeruginosa (Gram Negative), 1% solution in 95% ethyl alcohol
Source text: as §1, §2, §3

[3] = tested on: S. aureus; assay: as above; type: cell-based; settings: Staphylococcus aureus, read-out: minimum inhibitory concentration
Source text: as §1, §2, §3

[4] = tested on: A. niger; assay: as above; type: cell-based; settings: Aspergillus niger, A. niger (Mold), 1% solution in 95% ethyl alcohol
Source text: as §1, §2, §3

[5] = tested on: E. coli; assay: as above; type: cell-based; settings: Escherichia coli, read-out: minimum inhibitory concentration
Source text: as §1, §2, §3

[6] = tested on: Str. mitis; assay: as above; type: cell-based; settings: Streptococcus mitis, Str. mitis (Gram Positive), 1% solution in 95% ethyl alcohol
Source text: as §1, §2, §3

[7] = tested on: P. ovale; assay: as above; type: cell-based; settings: Pityrosporum ovale, P. ovale (Yeast), 1% solution in 95% ethyl alcohol
Source text: as §1, §2, §3

[8] = tested on: T. mentagrophytes; assay: as above; type: cell-based; settings: Trichophyton mentagrophytes, T. mentagrophytes (Mold), 1% solution in 95% ethyl alcohol
Source text: as §1, §2, §3

[9] = tested on: microorganisms; assay: antimicrobial properties of shampoo compositions; settings: substituted for 4-chlorphenyl 1-oxo-2-pyridyl disulfide in shampoo of Example VII
[10] = tested on: soil and foliage fungi; settings: U.S. Pat. No. 2,922,790; soil and foliage fungicides; cited from earlier work

Compound: [O-][n+]1ccccc1SSc1cccc[n+]1[O-]
MIC [1]: 31.2 µg/mL (≈ 124 µM)
MIC [2]: 250 µg/mL (≈ 991 µM)
MIC [3]: 7.8 µg/mL (≈ 30.9 µM)
MIC [4]: 62.5 µg/mL (≈ 248 µM)
MIC [5]: 62.5 µg/mL (≈ 248 µM)
MIC [6]: 31.2 µg/mL (≈ 124 µM)

Compound: [O-][n+]1ccccc1SSc1ccccc1
MIC [1]: > 1000 µg/mL
MIC [2]: 250 µg/mL (≈ 1060 µM)
MIC ([3]; S. aureus (Gram Positive), 1% solution in 95% ethyl alcohol, two-fold serial dilution): 3.9 µg/mL (≈ 16.6 µM)
MIC [7]: 0.1 µg/mL (≈ 0.425 µM)
MIC [4]: 15.6 µg/mL (≈ 66.3 µM)
MIC ([5]; E. coli (Gram Negative), 1% solution in 95% ethyl alcohol, two-fold serial dilution): 31.2 µg/mL (≈ 133 µM)
MIC [6]: 15.6 µg/mL (≈ 66.3 µM)
MIC [8]: 15.6 µg/mL (≈ 66.3 µM)

Compound: [O-][n+]1ccccc1SSCc1ccc(Cl)cc1Cl
MIC [1]: 7.8 µg/mL (≈ 24.5 µM)
MIC [2]: 125 µg/mL (≈ 393 µM)
MIC [3]: < 0.5 µg/mL
MIC [4]: 15.6 µg/mL (≈ 49 µM)
MIC [5]: 31.2 µg/mL (≈ 98 µM)
MIC [6]: 7.8 µg/mL (≈ 24.5 µM)
MIC [8]: 3.9 µg/mL (≈ 12.3 µM)

MIC [7]: 3.9 µg/mL (≈ 14.5 µM)
Compound: [O-][n+]1ccccc1SSc1ccc(Cl)cc1

MIC [7]: 15.6 µg/mL (≈ 51.3 µM)
Compound: [O-][n+]1ccccc1SSc1ccc(Cl)c(Cl)c1

MIC [7]: 1.9 µg/mL (≈ 6.69 µM)
Compound: [O-][n+]1ccccc1SSCc1ccc(Cl)cc1

MIC [7]: 3.9 µg/mL (≈ 12.3 µM)
Compound: [O-][n+]1ccccc1SSCc1ccc(Cl)c(Cl)c1

Compound: CCCCCCCCCCCCSSc1cccc[n+]1[O-] [dodecyl 1-oxo2-pyridyl disulfide, Dodecyl 1-oxo-2-pyridyl disulfide]
antimicrobial properties of the resultant shampoo [9]: substantially similar antimicrobial properties

Compound: CCCCCCSSc1cccc[n+]1[O-] [hexyl 1-oxo-2-pyridyl disulfide, Hexyl 1-oxo-2-pyridyl disulfide]
antimicrobial properties of the resultant shampoo [9]: substantially similar antimicrobial properties

Compound: COc1ccc(SSc2cccc[n+]2[O-])cc1 [p-methoxyphenyl 1oxo-2-pyridyl disulfide, p-Methoxyphenyl 1-oxo-2-pyridyl disulfide]
antimicrobial properties of the resultant shampoo [9]: substantially similar antimicrobial properties

Compound: Decenyl 1-oxo-2-pyridyl disulfide
antimicrobial properties of the resultant shampoo [9]: substantially similar antimicrobial properties

Compound: pyridine-1-oxide trichloromethyl disulfide
pesticidal properties [10]: pesticidal properties desirable in soil and foliage fungicides
